From ChEMBL document CHEMBL5725945, “Autotaxin inhibitors” (2018)

Biological target: Autotaxin (Homo sapiens, UniProt Q13822)
Assay: Quanta Red Assay: Measuring ATX activity using an enzyme coupled Quanta Red assay (Thermo Scientific Pierce Protein Research Products, Product #15159) was determined as follows. 8 μL human recombinant ATX (final concentration 0.8 μg/mL) in 1× Assay buffer containing 50 mM Tris-HCl (pH 8.0), 5 mM CaCl2 was added to an opaque black flat-bottom 384-well plate (Corning, #3575) containing 2 μL test compound in 40% DMSO (4% final DMSO concentration). 10 μL of Quanta Red, Horseradish peroxidase (HRP), Choline Oxidase (CO), Rac-1-Palmitoyl-glycero-3-phosphocholine solution (final concentration 1:250 for Quanta Red, 0.5units/ml HRP, 0.5units/ml CO, 15 μM Rac-1-Palmitoyl-glycero-3-phosphocholine) in 1× assay buffer (as described previously) was added to each well to start the reaction and the plate was incubated at room temperature for 2 hours. The reaction was stopped after 2 hours with a 20 μL addition of Quanta Red Stop solution (1:20 dilution in distilled water). The above-described mixture with DMSO alone was used as a positive control whereas that with DMSO alone without ATX was taken as a negative control. For each test compound, ten concentrations were measured covering a range of 6.1 nM to 120 μM to determine IC50 values. The top concentration was decreased to 1.2 μM when a test compound's IC50 value was evaluated in low nanomolar range. Fluorescence was determined in a BMG Labtech Pherastar plus plate reader (λ emission=540 nm, λ excitation=590 nm). Data were analysed using Excel fit software.

| Structure (SMILES) | IC50 |
| --- | --- |
| CCCN(CC)Cc1ccc(N2CC(C(=O)Nc3nnc(CCc4ccc(Cl)cc4)s3)CC2=O)cc1 (stereo not drawn) | 4 nM |
| CCCN(C)Cc1ccc(N2CC(C(=O)Nc3nnc(CCc4ccc(Cl)cc4)s3)CC2=O)cc1 (stereo not drawn) | 3 nM |
| CCC(C)CCc1nnc(NC(=O)C2CC(=O)N(c3ccc(CN4CCOCC4)cc3)C2)s1 (stereo not drawn) | 11 nM |
| O=C(Nc1nnc(CCC2CCCC2)s1)C1CC(=O)N(c2ccc(CN3CCOCC3)cc2)C1 (stereo not drawn) | 3 nM |
| O=C(Nc1cc(CCc2ccc(Cl)cc2)[nH]n1)C1CC(=O)N(c2ccc(CN3CCOCC3)cc2)C1 (stereo not drawn) | 5 nM |

Next, values leading:

| IC50 | Structure (SMILES) |
| --- | --- |
| 358 nM | O=C(Nc1nnc(CCC2CCOCC2)s1)C1CC(=O)N(c2ccc(CN3CCOCC3)cc2)C1 (stereo not drawn) |
| 124 nM | CN1CCN(Cc2ccc(N3C[C@H](NC(=O)c4nnc(CCc5ccc(Cl)cc5)s4)CC3=O)cc2)CC1 |
| 8 nM | O=C1CN(Cc2ccc(N3C[C@H](NC(=O)c4nnc(CCc5ccc(Cl)cc5)s4)CC3=O)cc2)CCN1 |
